Consider 2 compounds from patent US6372757B1, “Phenylurea and phenylthio urea derivatives” (SmithKline Beecham p.l.c., priority 1998, dated 2002).

As usually defined, the Kb is the affinity of an antagonist, worked out from how it opposes an agonist.

Where a name gives a salt, the structure may show the parent alone. No end group written: not given here. Where only a bound is given, the exact number is not on record here.

One assay concerns the target T1, human orexin-1 receptor (Homo sapiens, UniProt O43613).
T1 construct: expressed in transfected cells; host or cells: HEK293
T1 sequence (O43613 1-425): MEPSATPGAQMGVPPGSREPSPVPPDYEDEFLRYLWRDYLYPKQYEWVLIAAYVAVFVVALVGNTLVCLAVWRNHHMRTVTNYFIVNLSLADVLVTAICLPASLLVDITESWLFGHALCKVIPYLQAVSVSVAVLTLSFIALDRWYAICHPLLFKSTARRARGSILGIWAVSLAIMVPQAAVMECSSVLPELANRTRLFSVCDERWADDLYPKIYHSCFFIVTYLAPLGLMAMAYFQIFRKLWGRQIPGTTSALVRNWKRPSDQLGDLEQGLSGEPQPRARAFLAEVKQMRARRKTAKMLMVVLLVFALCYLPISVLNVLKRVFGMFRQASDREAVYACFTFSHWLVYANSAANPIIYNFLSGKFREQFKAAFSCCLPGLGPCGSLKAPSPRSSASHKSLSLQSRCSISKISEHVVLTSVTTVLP
The assay is described as follows: Orexin-1 receptor antagonist activity, FLIPR intracellular calcium assay in HEK293 cells against 3.0 nM human orexin-A. It is filed as cell-based. Conditions: HEK293 cells expressing human orexin-1 receptor; antagonism of 3.0 nM human orexin-A; Kb=IC50/(1+([3/EC50]). Here is the method: The seeded plates were incubated overnight at 37° C. in 5% CO2.
For orientation: A change in cytosolic calcium serves as a functional read-out for many receptors and channels.

Assay [1] can be described thus: Rat sleep/EEG studies, central administration at onset of normal sleep period. It is filed as in vivo. Conditions: at the expense of paradoxical sleep and slow wave sleep 2. An excerpt: Therefore, antagonists of orexin receptors may be useful in the treatment of sleep disorders including insomnia.
The conditions of assay [2]: central administration, freely-feeding rats, 4 hour time period; cited from earlier work.

On to `CSc1ccc(NC(=O)Nc2ccnc3cccnc23)cc1` [Example 2, 1-(4-Methylthiophenyl)-3-[1,5]naphthyridin-4-yl urea hydrochloride], for which the Kb on human orexin-1 receptor is under 0.1 µM.

Consider “orexin-A: ligand for the orexin-1 receptor; 33-residue peptide, sequence given in the 1st table (QPLPDCCRQKTCSCRLYELLHGAGNHAAGILTL-NH2; not fully specified (residue 1, bridges); ends and bridges not checked; UniProt O43612 34-66, looked up)”, for which the effect on arousal result in assay [1] is “does-related increase in arousal”. The “increase in food intake over control rats receiving vehicle” value in assay [2] was “approximately four-fold”.
